Results as given in patent publication US10131652B2, “Pyrimidinyloxy benzene derivatives as herbicides” (E. I. DU PONT DE NEMOURS AND COMPANY, priority 2014, dated 2018).
Like-named read-outs stand apart in the source and are kept apart here.

Columns and labels:
Assay type in all cases: in vivo
[1] = tested on: giant foxtail (Setaria faberii); test: Test B pre-/postemergence plant response; details: Setaria faberi, 240 h, read-out: Plant response rating, Foxtail, Giant; for pest or weed control at 125 g/ha: 125 g ai/ha; for pest or weed control at 500 g/ha: 500 g ai/ha
How it was run: (§1)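 Scoring used a 0–100 scale (100 = complete control) by visual comparison with untreated plants after approximately 10 days in the greenhouse. Compounds, in surfactant-containing non-phytotoxic solvent, were sprayed onto soil at planting or onto 2–10 cm seedlings.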

[2] = tested on: pigweed (Amaranthus retroflexus); test: Test B pre-/postemergence plant response; details: Amaranthus retroflexus, 240 h, read-out: Plant response rating, Pigweed; for pest or weed control at 125 g/ha: 125 g ai/ha; for pest or weed control at 500 g/ha: 500 g ai/ha
How it was run: as §1

corn (Zea mays) = test: Test B pre-/postemergence plant response; details: Zea mays, 240 h; for Corn plant response rating (crop injury, 0 = no effect, 100 = complete kill) at 125 g/ha: 125 g ai/ha; for Corn plant response rating (crop injury, 0 = no effect, 100 = complete kill) at 500 g/ha: 500 g ai/ha
How it was run: as §1

[3] = tested on: barnyardgrass (Echinochloa crus-galli); test: Test B pre-/postemergence plant response; details: Echinochloa crus-galli, 240 h, read-out: Plant response rating, Barnyardgrass; for pest or weed control at 125 g/ha: 125 g ai/ha; for pest or weed control at 500 g/ha: 500 g ai/ha
How it was run: as §1

[4] = tested on: wheat (Triticum aestivum); test: Test B pre-/postemergence plant response; details: Triticum aestivum, 240 h, read-out: Plant response rating, Wheat; for plant injury at 125 g/ha: 125 g ai/ha; for plant injury at 500 g/ha: 500 g ai/ha
How it was run: as §1

wild oat (Avena fatua) = test: Test D postemergence plant response; details: Avena fatua, post-emergence; for pest or weed control at 31 g/ha: 31 g ai/ha; for pest or weed control at 62 g/ha: 62 g ai/ha; for pest or weed control at 125 g/ha: 125 g ai/ha
Description: (§2) At the same time, plants selected from these crop and weed species and also kochia (Kochia scoparia), wild oat (Avena fatua), and chickweed (common chickweed, Stellaria media) were planted in pots containing Redi-Earth® planting medium (Scotts Company, 14111 Scottslawn Road, Marysville, Ohio 43041) comprising spaghnum peat moss, vermiculite, wetting agent and starter nutrients and treated with postemergence applications of test chemicals formulated in the same manner. Plants ranged in height from 2 to 18 cm (1- to 4-leaf stage) for postemergence treatments. Treated plants and controls were maintained in a greenhouse for 13 to 15 days, after which time all species were compared to controls and visually evaluated. Plant response ratings, summarized in Table D, are based on a scale of 0 to 100 where 0 is no effect and 100 is complete control. A dash (-) response means no test result.

kochia (Kochia scoparia) = test: Test D postemergence plant response; details: Bassia scoparia, post-emergence; for pest or weed control at 31 g/ha: 31 g ai/ha; for pest or weed control at 62 g/ha: 62 g ai/ha; for pest or weed control at 125 g/ha: 125 g ai/ha
Description: as §2

[5] = tested on: chickweed (common chickweed, Stellaria media); test: Test D postemergence plant response; details: Stellaria media, post-emergence; for pest or weed control at 31 g/ha: 31 g ai/ha; for pest or weed control at 62 g/ha: 62 g ai/ha; for pest or weed control at 125 g/ha: 125 g ai/ha
Description: as §2

[6] = tested on: small-flower umbrella sedge (Cyperus difformis); test: Test C flooded paddy test plant response; details: Cyperus difformis; Flood, 250 g ai/ha; scale of 0 to 100 where 0 is no effect and 100 is complete control; 13 to 15 days; read-out: Sedge, Umbrella plant response rating
How it was run: (§3)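 Plants grown to 2-leaf stage, flooded 3 cm above soil; compounds applied directly into paddy water, depth kept throughout. Visual rating versus controls after 13 to 15 days in greenhouse, 0 (no effect) to 100 (complete control).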

[7] = tested on: barnyardgrass (Echinochloa crus-galli); test: Test C flooded paddy test plant response; details: Echinochloa crus-galli; Flood, 250 g ai/ha; scale of 0 to 100 where 0 is no effect and 100 is complete control; 13 to 15 days; read-out: Barnyardgrass plant response rating
How it was run: as §3

[8] = tested on: ducksalad (Heteranthera limosa); test: Test C flooded paddy test plant response; details: Heteranthera limosa; Flood, 250 g ai/ha; scale of 0 to 100 where 0 is no effect and 100 is complete control; 13 to 15 days; read-out: Ducksalad plant response rating
How it was run: as §3

rice (Oryza sativa) = test: Test C flooded paddy test plant response; details: Oryza sativa; Flood, 250 g ai/ha; scale of 0 to 100 where 0 is no effect and 100 is complete control; 13 to 15 days; read-out: Rice plant response rating
How it was run: as §3

[9] = post-emergence, postemergence, 0 to 100 scale, 0 no effect, 100 complete control
[10] = post-emergence, Postemergence, 0 to 100 scale (0 no effect, 100 complete control)
[11] = pre-emergence, Preemergence, 0 to 100 scale where 0 is no effect and 100 is complete control
[12] = scale 0 to 100 (0 no effect, 100 complete control), read-out: Oat, Wild plant response rating
[13] = scale 0 to 100, 0 no effect, 100 complete control, read-out: Plant response rating, Oat, Wild
[14] = scale 0 to 100 (0 no effect, 100 complete control), read-out: Kochia plant response rating
[15] = scale 0 to 100, 0 no effect, 100 complete control, read-out: Plant response rating, Kochia
[16] = scale 0 to 100 (0 no effect, 100 complete control), read-out: Chickweed plant response rating
[17] = scale 0 to 100, 0 no effect, 100 complete control, read-out: Plant response rating, Chickweed

FC(F)(F)c1cc(-c2ccccc2Oc2ncc(Cl)cn2)on1 [Compound 63, 5-chloro-2-[2-[3-(trifluoromethyl)-5-isoxazolyl]phenoxy]pyrimidine]
pest or weed control at 125 g/ha [1, 9]: 70% | pest or weed control at 500 g/ha [1, 10]: 80% | pest or weed control at 125 g/ha [1, 11]: 100% | pest or weed control at 500 g/ha [1, 11]: 100% | pest or weed control at 125 g/ha [2, 9]: 100% | pest or weed control at 500 g/ha [2, 10]: 100% | pest or weed control at 125 g/ha [2, 11]: 100% | pest or weed control at 500 g/ha [2, 11]: 100% | Corn plant response rating (crop injury, 0 = no effect, 100 = complete kill) at 125 g/ha (corn (Zea mays); [9]): 20% | Corn plant response rating (crop injury, 0 = no effect, 100 = complete kill) at 500 g/ha (corn (Zea mays); [10]): 20% | Corn plant response rating (crop injury, 0 = no effect, 100 = complete kill) at 125 g/ha (corn (Zea mays); [11]): 10% | Corn plant response rating (crop injury, 0 = no effect, 100 = complete kill) at 500 g/ha (corn (Zea mays); [11]): 30% | pest or weed control at 125 g/ha [3, 9]: 80% | pest or weed control at 500 g/ha [3, 10]: 100% | pest or weed control at 125 g/ha [3, 11]: 90% | pest or weed control at 500 g/ha [3, 11]: 100% | plant injury at 125 g/ha [4, 9]: 0% | plant injury at 500 g/ha [4, 10]: 50% | plant injury at 125 g/ha [4, 11]: 20% | plant injury at 500 g/ha [4, 11]: 40% | pest or weed control at 16 g/ha (wild oat (Avena fatua); 16 g ai/ha, scale 0 to 100 (0 no effect, 100 complete control), read-out: Oat, Wild plant response rating): 0% | pest or weed control at 31 g/ha (wild oat (Avena fatua); [12]): 20% | pest or weed control at 62 g/ha (wild oat (Avena fatua); [13]): 25% | pest or weed control at 125 g/ha (wild oat (Avena fatua); [13]): 35% | pest or weed control at 16 g/ha (kochia (Kochia scoparia); 16 g ai/ha, scale 0 to 100 (0 no effect, 100 complete control), read-out: Kochia plant response rating): 90% | pest or weed control at 31 g/ha (kochia (Kochia scoparia); [14]): 95% | pest or weed control at 62 g/ha (kochia (Kochia scoparia); [15]): 98% | pest or weed control at 125 g/ha (kochia (Kochia scoparia); [15]): 100% | pest or weed control at 16 g/ha ([5]; 16 g ai/ha, scale 0 to 100 (0 no effect, 100 complete control), read-out: Chickweed plant response rating): 60% | pest or weed control at 31 g/ha [5, 16]: 65% | pest or weed control at 62 g/ha [5, 17]: 98% | pest or weed control at 125 g/ha [5, 17]: 100% | pest or weed control at 250 g/ha [6]: 85% | pest or weed control at 250 g/ha [7]: 60% | pest or weed control at 250 g/ha [8]: 100% | plant injury at 250 g/ha (rice (Oryza sativa)): 25%

FC(F)c1cc(-c2ccccc2Oc2ncc(Br)cn2)no1 [Compound 62, 5-bromo-2-[2-[5-(difluoromethyl)-3-isoxazolyl]phenoxy]pyrimidine]
pest or weed control at 125 g/ha [1, 9]: 80% | pest or weed control at 500 g/ha [1, 10]: 90% | pest or weed control at 125 g/ha [1, 11]: 100% | pest or weed control at 500 g/ha [1, 11]: 100% | pest or weed control at 125 g/ha [2, 9]: 100% | pest or weed control at 500 g/ha [2, 10]: 100% | pest or weed control at 125 g/ha [2, 11]: 100% | pest or weed control at 500 g/ha [2, 11]: 100% | Corn plant response rating (crop injury, 0 = no effect, 100 = complete kill) at 125 g/ha (corn (Zea mays); [9]): 10% | Corn plant response rating (crop injury, 0 = no effect, 100 = complete kill) at 500 g/ha (corn (Zea mays); [10]): 50% | Corn plant response rating (crop injury, 0 = no effect, 100 = complete kill) at 125 g/ha (corn (Zea mays); [11]): 0% | Corn plant response rating (crop injury, 0 = no effect, 100 = complete kill) at 500 g/ha (corn (Zea mays); [11]): 20% | pest or weed control at 125 g/ha [3, 9]: 90% | pest or weed control at 500 g/ha [3, 10]: 100% | pest or weed control at 125 g/ha [3, 11]: 80% | pest or weed control at 500 g/ha [3, 11]: 100% | plant injury at 125 g/ha [4, 9]: 0% | plant injury at 500 g/ha [4, 10]: 30% | plant injury at 125 g/ha [4, 11]: 20% | plant injury at 500 g/ha [4, 11]: 30% | pest or weed control at 31 g/ha (wild oat (Avena fatua); [12]): 30% | pest or weed control at 62 g/ha (wild oat (Avena fatua); [13]): 40% | pest or weed control at 125 g/ha (wild oat (Avena fatua); [13]): 50% | pest or weed control at 250 g/ha (wild oat (Avena fatua); 250 g ai/ha, scale 0 to 100, 0 no effect, 100 complete control, read-out: Plant response rating, Oat, Wild): 60% | pest or weed control at 31 g/ha (kochia (Kochia scoparia); [14]): 98% | pest or weed control at 62 g/ha (kochia (Kochia scoparia); [15]): 100% | pest or weed control at 125 g/ha (kochia (Kochia scoparia); [15]): 100% | pest or weed control at 250 g/ha (kochia (Kochia scoparia); 250 g ai/ha, scale 0 to 100, 0 no effect, 100 complete control, read-out: Plant response rating, Kochia): 100% | pest or weed control at 31 g/ha [5, 16]: 70% | pest or weed control at 62 g/ha [5, 17]: 95% | pest or weed control at 125 g/ha [5, 17]: 98% | pest or weed control at 250 g/ha ([5]; 250 g ai/ha, scale 0 to 100, 0 no effect, 100 complete control, read-out: Plant response rating, Chickweed): 100% | pest or weed control at 250 g/ha [6]: 90% | pest or weed control at 250 g/ha [7]: 35% | pest or weed control at 250 g/ha [8]: 100% | plant injury at 250 g/ha (rice (Oryza sativa)): 40%
